The target in test [1] is T1, acetylcholine nicotinic receptor (Rattus norvegicus, UniProt P09483+P12390).
T1 construct: rat cortex as the tissue substrate; from tissue; host or cells: rat cortex
The experiment in a line: Nicotinic receptor binding, [3H]-NMCI radioligand, rat cortex (Table 6). As for the experimental part: Evaluation of Nicotinic Receptor Binding Activity
7-Aza-bicyclo[2.2.1]-heptanes and -heptenes were evaluated for their ability to bind to the acetylcholine nicotinic receptor using a standard binding assay, e.g. X. Zhang and A. Nordberg, Arch. Pharmacol., 348, 28 (1993); R. E. Middleton and J. B. Cohen, Biochemistry, 30, 6987 (1991), with nicotine sulfate as the reference compound, rat cortex as the tissue substrate, and a [^3 H]-NMCI radioligand.

The nature of test [2]: Tail-flick assay in mice and rats (antinociception). In kind it is in vivo. The conditions noted are these: for Tail-Flick Assay ED50 % Effect After 5 min. / Tail-Flick Assay ED50 % Effect After 60 min.: (mg/kg). How it is done: Tail-Flick Assay in Mice and Rats
Female CD-1 mice (20-25 g, Charles River Labs) and male CD rats (300-400 g, Charles River Labs) were housed in groups of two and five, respectively. Animals were given food and water ad libitum. Most studies were performed using groups of 5 animals per treatment unless otherwise noted.
Antinociceptive effects (i.e., analgesia) of test compounds in mice and rats were measured by the tail-flick test using a tail-flick analgesia meter (EMDIE Instrument Co.). A maximum latency of 10 sec was imposed if no response occurred within that time. Antinociceptive activity, measured as % MPE, was calculated as [(test-control)/(10-control)×100)].
Duration of compound and (-)-nicotine-induced antinociception was assessed in mice by measuring antinociception at 2, 5, 10, 20 min after compound (20 μg/kg, s.c.) or nicotine (5 mg/kg, s.c.).
Mice (7/group) or rats were pretreated i.v. (0.9% saline or antagonist, mecamylamine, hexamethonium, atropine, naloxone or yohimbine) 10 minutes before administration of compound or nicotine at different doses. A control response (1.5-4 sec) was determined for each animal before treatment and test latencies were assessed at 5 minutes after compound administration (5 ml/kg, s.c.) or 2 min after nicotine (5 ml/kg, s.c.).
A general note: In hot-plate and tail-flick tests a longer latency is read as antinociception.

The target in test [3] is T2, nicotinic cholinergic receptor (Rattus norvegicus, UniProt P09483+P12390).
T2 construct: A membrane fraction from rat brain cortex; tissue Harlan Laboratories; host or cells: rat brain cortex membranes
The experiment in a line: Competition with [3H](-)-cytisine for binding to rat cortex (brain) receptors (Tables 7, 8). The conditions noted are these: Table 8, [3H](-)-cytisine, rat brain cortex membranes; read-out: Nicotine Receptor IC50. An excerpt: Competition with Cytisine for Binding to Rat Cortex (Brain) Receptors
[^3 H](-)-Cytisine is a nicotinic cholinergic receptor ligand that binds with high affinity to the a4b2 subtype receptor, the major subtype in rodent brain accounting for >90% of (-)-nicotine binding sites (Flores, et al., 1992; Whiting, et al., 1992). This nicotinic receptor subtype is most sensitive to (-)-nicotine compared to other receptor subtypes (Connolly, et al., 1992). Compounds that compete with cytisine for the nicotinic cholineric receptor are considered nicotine receptor agonists.
A membrane fraction from rat brain cortex (Harlan Laboratories) was prepared using an adaptation of an established method (Pabreza, et al., 1991). Compound and [^3 H]-(-)-cytisine (New England Nuclear, 42 Ci/mmol) were mixed before addition of membrane (0.5 mg protein) and incubated in glass tubes for 75 minutes on ice; total assay volume was 0.24 ml. Parallel assays to determine nonspecific binding were incubated in the presence of 10 uM (-)-nicotine (Sigma). Bound radioactivity was isolated by vacuum filtration onto glass microfiber filters (Whatman, GF-B) using millipore tubs, followed by 3×4 ml buffer wash. Filters were prerinsed with 0.5% polyethyleneimine prior to sample filtration to reduce nonspecific binding. Bound radioactivity was quantitated by scintillation counting.

Test [4] in a line: Analgesic activity, Straub-Tail assay (Table 5). The test is classed as in vivo.
A short description of test [5]: Analgesic activity, Straub-Tail assay (Table 5). The conditions noted are these: for ED50: Straub-Tail assay. In kind it is in vivo. An excerpt: A wide variety of biological assays have been used to evaluate the ability of a compound to act as an analgesic. Any of these known assays can be used to evaluate the analgesic ability of the compounds disclosed herein. The Straub-tail reaction, which is characteristic of opiate alkaloids, has been used as an assay for opiate agonists and antagonists. The assay is described in detail in Br. J. of Pharmacol. 1969, 36, 225. Another accepted assay for analgesic activity is the hot plate analgesia assay, described in J. of Pharmacol. Exp. Therap. 1953, 107, 385. An assay for the evaluation of the ability of a compound to bind to an opiate receptor is described in Mol. Pharmacol. 1974, 10, 868.
Evaluation of Analgesic Activity
Table 5 provides the analgesic activity measured as ED50 (μg/Kg) for selected compounds disclosed herein, as determined using the Straub-Tail assay, as describe by J. Daly et al. J. Am. […] Chem. Soc. 1992, 114, 3475; T. Li, et al. Bioorganic and Medicinal Chemistry Letters 1993, 3, 2759.

The conditions of test [6]: opiate antagonist naloxone; cited from earlier work.
Test [7] has as its system opiate receptors. The conditions noted are these: in words; cited from earlier work.
Test [8] deals with nicotinic cholinergic receptor. The conditions noted are these: in words; cited from earlier work.
Test [9] deals with a4b2 subtype receptor. The settings on record: in words; cited from earlier work.
Setting [10] is: Straub-Tail assay, read-out: ED50.

For orientation: ED50 means the midpoint of the dose-response relation. What is called IC50 is the point on the concentration scale where inhibition reaches its midpoint.

In the case of `C[N+]1(C)C2CCC1C(c1ccc(Cl)nc1)C2` (stereo not shown), the Inhibition % in [1] (testing level 10^-5 M) stood at 104%; in test [1] (testing level 10^-7 M) it was 100%.

For the molecule `N=CN1C2CCC1C(c1ccc(Cl)nc1)C2` (stereo not shown), in test [1] (testing level 10^-7 M), the Inhibition % is on record as 104%. Consider `N=CN1C2CCC1C(c1cccnc1)C2` (stereo not shown), for which the Inhibition % in test [1] (testing level 10^-7 M) stood at 103.9%; in [1] (testing level 10^-8 M), 71.3%. `Cc1noc(C2CC3CCC2N3C)n1` (stereo not shown): the ED50 in test [2] (Mus musculus, sc, Table 8) came out at 0.23 mg/kg. Turning to `Cc1cc(C2CC3CCC2N3)on1` (stereo not shown), the IC50 in test [3] turned out to be 630 nM. Same read-out and setting: to `Cc1cc(C2CC3CCC2N3C)on1` (stereo not shown) belongs 24 nM; to `CN1C2CCC1C(c1ccc3ccccc3n1)C2` (stereo not shown), 77 nM; to `c1ccc2nc(C3CC4CCC3N4)ccc2c1` (stereo not shown), 7 nM. `CN1[C@H]2CC[C@@H]1[C@@H](c1ccc(Cl)nc1)C2` (relative stereo): the ED50 in test [4] (setting [10]) is less than 0.01 mg/kg. Regarding `COc1ccc([C@H]2C[C@@H]3CC[C@H]2N3)cn1` (relative stereo), the ED50 in test [4] (setting [10]) worked out at 0.75 mg/kg. Take `Clc1ccc([C@H]2C[C@@H]3CC[C@H]2N3CC2CC2)cn1` (relative stereo): the “effect in Straub-Tail assay” value in test [5] (@ 1000 μg/Kg) came to 100%. Turning to `Clc1ccc([C@H]2C[C@@H]3CC[C@H]2N3CCc2ccccc2)cn1` (relative stereo), the ED50 in [4] (setting [10]) is less than 1 mg/kg. Regarding `c1cncc([C@H]2C[C@@H]3CC[C@H]2N3)c1` (relative stereo), the ED50 in test [4] (setting [10]) was 0.25 mg/kg.

Consider `Clc1ccc([C@H]2C[C@@H]3C=C[C@H]2N3)cn1` (relative stereo), for which, in test [4] (setting [10]), the ED50 was less than 1 mg/kg. Still for that read-out and setting: to `C[N+]1(C)[C@H]2CC[C@@H]1[C@@H](c1ccc(Cl)nc1)C2` (relative stereo) belongs 0.1 to 0.2 mg/kg; to `Fc1ccc([C@H]2C[C@@H]3CC[C@H]2N3)cn1` (relative stereo), approximately 0.05 mg/kg. `ClCCN1[C@H]2CC[C@@H]1[C@@H](c1ccc(Cl)nc1)C2` (relative stereo) had an ED50 in test [4] of approximately 0.1 mg/kg.

`N=CN1[C@H]2CC[C@@H]1[C@@H](c1ccc(Cl)nc1)C2` (relative stereo): the “effect in Straub-Tail assay” value in test [5] (@ 100 (μg/Kg per column head)) was found to be 99%. As for `CC(C)(C)Oc1ccc([C@H]2C[C@@H]3CC[C@H]2N3)cn1` (relative stereo), the median effective dose (ED50) in test [4] (setting [10]) is approximately 1 mg/kg. On to `Clc1ccc([C@H]2C[C@@H]3CC[C@H]2N3)cn1` (relative stereo) [drawing 50], for which the ED50 in test [5] was 0.01 mg/kg. As to `Clc1ccc([C@H]2C[C@@H]3CC[C@H]2N3)cn1` (relative stereo) [epibatidine, exo-2-(2-chloro-5-pyridyl)-7-azabicyclo[2.2.1]heptane], in [6], the “effect of naloxone on Straub-tail response” value is given as “not reversed by the opiate antagonist naloxone”. Besides, the “affinity for opiate receptors” value in [7] was “negligible affinity”. Besides, the “nicotinic cholinergic receptor activity” value in [8] was “nicotinic cholinergic receptor agonist”.

In the case of `O=c1cccc2n1C[C@@H]1CNC[C@H]2C1` [[^3 H](-)-Cytisine], in test [9], the “affinity for a4b2 subtype receptor” value is listed as “high affinity”.

Take `Clc1ccc([C@@H]2C[C@H]3CC[C@@H]2N3)cn1` [d-epibatidine]: the ED50 in test [5] was more than 0.1 mg/kg. Take `c1cncc(C2CC3CCC2N3)c1` (stereo not shown) [drawing 40]: the ED50 in test [4] (setting [10]) came to 10 mg/kg.

On to `c1cncc(C2CC3CCC2N3)c1` (stereo not shown) [drawing 55], for which the Inhibition % in test [1] (testing level 10^-5 M) amounted to 104%; in test [1] (testing level 10^-9 M) it was 103%. For the molecule `Cc1nnc(C2CC3CCC2N3C)o1` (stereo not shown) [drawing 60], in test [2], the “Tail-Flick Assay ED50 % Effect After 5 min.” value is listed as -2.9% and the “Tail-Flick Assay ED50 % Effect After 60 min.” value is -3.6%. On the same counts, the results for `Cc1nnc(C2CC3CCC2N3C)o1` (stereo not shown) [drawing 61] are 6.7% and 24.6%.
